± gives the standard deviation of the averaged measurements.
Key:
Assay in all cases: level (log10 ratio to DMSO vehicle control); higher = higher biomarker level / cell amount than vehicle control
Conditions in all cases: in DMSO
[1] = compound: C=C(C)C(=O)OCC(F)(F)C(F)(F)C(F)(F)C(F)(F)C(F)(F)C(F)(F)C(F)(F)F
Description: (§1)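 BioMAP Diversity Plus panel of 12 human primary cell co-culture systems (3C, 4H, LPS, SAg, BT, BF4T, BE3C, CASM3C, HDF3CGF, KF3CT, MyoF, Mphg). Compounds were added 1 h before stimulation and left for 24 h (MyoF 48 h; BT 72 h for soluble read-outs or 6 d for IgG). Biomarkers were read by ELISA, cytotoxicity by SRB, PBMC viability and proliferation by Alamar Blue. Each well value was divided by the mean of 8 DMSO control wells on the same plate and log10 transformed; duplicate blinded samples were tested at 4 concentrations.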

[2] = compound: CC(C)(C)C(=O)CC(=O)C(F)(F)C(F)(F)C(F)(F)F [(Heptafluorobutanoyl)pivaloylmethane]
Description: as §1

[3] = compound: NC(=O)C(F)(F)C(F)(F)C(F)(F)C(F)(F)C(F)(F)C(F)(F)C(F)(F)F [Perfluorooctanamide]
Description: as §1

[4] = compound: O=C(O)C(F)(F)C(F)(F)C(F)(F)C(=O)O [Hexafluoroglutaric acid]
Description: as §1

[5] = compound: O=C(O)C(F)(F)OC(F)(F)C(F)(F)OC(F)(F)C(F)(F)C(F)(F)C(F)(F)F [Perfluoro-3,6-dioxadecanoic acid]
Description: as §1

[6] = compound: O=S(=O)(O)C(F)(F)C(F)(F)C(F)(F)C(F)(F)C(F)(F)C(F)(F)C(F)(F)C(F)(F)F [Perfluorooctanesulfonic acid]
Description: as §1

[7] = compound: O=S(=O)(O)C(F)(F)C(F)(F)C(F)(F)C(F)(F)C(F)(F)C(F)(F)C(F)(F)C(F)(F)F [Potassium perfluorooctanesulfonate]
Description: as §1

Row | Test System | level (log10) ([1]; 6700 nM) | level (log10) ([1]; 20000 nM) | level (log10) ([2]; 6700 nM) | level (log10) ([2]; 20000 nM) | level (log10) ([2]; 60000 nM) | level (log10) ([3]; 6700 nM) | level (log10) ([3]; 20000 nM) | level (log10) ([3]; 60000 nM) | level (log10) ([4]; 6700 nM) | level (log10) ([4]; 20000 nM) | level (log10) ([4]; 60000 nM) | level (log10) ([5]; 6700 nM) | level (log10) ([5]; 20000 nM) | level (log10) ([5]; 60000 nM) | level (log10) ([6]; 6700 nM) | level (log10) ([6]; 20000 nM) | level (log10) ([6]; 60000 nM) | level (log10) ([7]; 6700 nM) | level (log10) ([7]; 20000 nM) | level (log10) ([7]; 60000 nM)
1 | BF4T:IL-1alpha | -0.0175 ± 0.025 | 0.006 ± 0.0099 | 0.007 ± 0.011 | -0.0225 ± 0.011 | -0.028 ± 0.017 | 0.008 ± 0.0099 | 0.003 ± 0.017 | -0.001 ± 0.024 | -0.0065 ± 0.015 | -0.0195 ± 0.0035 | -0.0045 ± 0.033 | 0.008 ± 0.0057 | 0.0015 ± 0.00071 | -0.0055 ± 0.005 | 0.01 ± 0.011 | 0.002 ± 0.0014 | -0.002 ± 0.0099 | 0.003 ± 0.0028 | 0.0065 ± 0.0078 | 0.0125 ± 0.044
2 | BF4T:tPA | 0.0085 ± 0.0035 | -0.0115 ± 0.021 | -0.024 ± 0.027 | -0.033 ± 0.0057 | -0.0225 ± 0.026 | -0.015 ± 0.034 | -0.006 ± 0.017 | -0.004 ± 0.0042 | -0.0195 ± 0.018 | -0.0205 ± 0.028 | -0.0045 ± 0.011 | -0.051 ± 0.0014 | -0.0565 ± 0.026 | 0.0105 ± 0.05 | 0.0135 ± 0.013 | -0.0175 ± 0.00071 | 0.0195 ± 0.018 | -0.0045 ± 0.0092 | -0.019 ± 0.0028 | 0.0185 ± 0.032
3 | BE3C:CXCL9/MIG | 0.0015 ± 0.00071 | -0.0085 ± 0.0035 | -0.0045 ± 0.0035 | -0.0025 ± 0.0064 | -0.0005 ± 0.0064 | 0.0075 ± 0.028 | 0.0025 ± 0.019 | 0.012 ± 0.011 | 0.001 ± 0.0042 | 0.008 | -0.0055 ± 0.0021 | -0.0045 ± 0.011 | -0.011 ± 0.017 | -0.012 ± 0.0057 | 0.0105 ± 0.0078 | -0.011 ± 0.021 | -0.513 ± 0.32 | 0.0095 ± 0.0064 | -0.014 ± 0.024 | -0.039 ± 0.021
4 | LPS:CXCL8/IL-8 | -0.0045 ± 0.0092 | 0.033 ± 0.011 | -0.019 ± 0.0099 | 0.015 ± 0.0057 | 0.0265 ± 0.013 | -0.012 ± 0.024 | -0.049 ± 0.023 | -0.0335 ± 0.021 | -0.0235 ± 0.012 | -0.0535 ± 0.018 | -0.028 ± 0.067 | -0.0175 ± 0.0092 | -0.0145 ± 0.013 | 0.018 ± 0.02 | -0.0005 ± 0.011 | 0.015 ± 0.02 | 0.0235 ± 0.046 | 0.0255 ± 0.067 | 0.0435 ± 0.0092 | 0.061 ± 0.05
5 | BE3C:CD54/ICAM-1 | 0.007 ± 0.0014 | 0.006 ± 0.0085 | -0.0055 ± 0.005 | -0.008 ± 0.0014 | -0.0185 ± 0.011 | -0.012 ± 0.0042 | -0.0075 ± 0.012 | -0.022 ± 0.033 | 0.018 ± 0.0042 | 0.0095 ± 0.018 | 0.009 ± 0.02 | -0.0105 ± 0.0021 | -0.024 ± 0.013 | 0.008 ± 0.0057 | 0.016 ± 0.011 | 0.0665 ± 0.00071 | -0.263 ± 0.21 | 0.027 ± 0.0028 | 0.074 ± 0.024 | 0.0575 ± 0.0064
6 | BE3C:CD87/uPAR | 0.0015 ± 0.016 | -0.004 ± 0.023 | 0.0035 ± 0.032 | 0.0235 ± 0.0078 | -0.0045 ± 0.005 | -0.0475 ± 0.0035 | -0.0065 ± 0.035 | -0.004 ± 0.028 | -0.0045 ± 0.0092 | -0.01 ± 0.014 | -0.0125 ± 0.011 | 0.018 ± 0.0014 | 0.0455 ± 0.025 | 0.102 ± 0.0099 | 0.0465 ± 0.005 | 0.081 ± 0.045 | 0.0355 ± 0.0021 | 0.0335 ± 0.022 | 0.081 ± 0.054 | 0.14 ± 0.025
7 | BF4T:MMP-3 | 0.002 ± 0.023 | -0.007 ± 0.018 | -0.031 ± 0.02 | -0.0345 ± 0.029 | -0.0285 ± 0.057 | -0.007 ± 0.051 | 0.0125 ± 0.012 | 0.019 ± 0.017 | -0.0045 ± 0.0092 | -0.0125 ± 0.035 | 0.0175 ± 0.0021 | 0.008 ± 0.0057 | 0.11 ± 0.015 | 0.161 ± 0.037 | 0.012 ± 0.035 | 0.0625 ± 0.012 | 0.059 ± 0.089 | 0.0175 ± 0.028 | 0.0635 ± 0.026 | 0.087 ± 0.065
8 | LPS:sTNF-alpha | 0.0045 ± 0.088 | 0.0175 ± 0.011 | -0.001 ± 0.0014 | 0.0195 ± 0.0064 | 0.07 ± 0.014 | -0.036 ± 0.034 | -0.025 ± 0.0085 | -0.028 ± 0.0071 | 0.0045 ± 0.026 | -0.0025 ± 0.022 | 0.0035 ± 0.0064 | 0.012 ± 0.011 | 0.0155 ± 0.018 | 0.0135 ± 0.015 | 0.0195 ± 0.079 | -0.043 ± 0.062 | -0.0545 ± 0.076 | -0.03 ± 0.073 | -0.047 ± 0.1 | -0.0915 ± 0.15
9 | BF4T:PAI-I | 0.0195 ± 0.022 | 0.0135 ± 0.019 | -0.0045 ± 0.0021 | 0.001 ± 0.0028 | 0.0085 ± 0.012 | -0.009 ± 0.023 | -0.004 ± 0.017 | 0.0065 ± 0.005 | -0.0085 ± 0.022 | -0.002 ± 0.021 | 0.0165 ± 0.011 | -0.057 ± 0.011 | -0.0575 ± 0.005 | -0.054 ± 0.042 | -0.002 ± 0.0085 | -0.0135 ± 0.0021 | -0.02 ± 0.052 | 0.0015 ± 0.0092 | -0.0045 ± 0.0078 | 0.007 ± 0.04
10 | LPS:CD62E/E-Selectin | -0.021 ± 0.018 | 0.0025 ± 0.0035 | -0.0025 ± 0.005 | -0.0145 ± 0.021 | 0.004 ± 0.0042 | -0.002 ± 0.014 | -0.001 ± 0.011 | 0.0205 ± 0.0078 | -0.003 ± 0.035 | 0.0045 ± 0.03 | 0.004 ± 0.033 | 0.008 ± 0.034 | 0.006 ± 0.04 | 0.024 ± 0.04 | -0.002 ± 0.0014 | -0.0055 ± 0.036 | 0.019 ± 0.0028 | 0.0005 ± 0.037 | 0.0035 ± 0.00071 | 0.0205 ± 0.00071
11 | 3C:CXCL8/IL-8 | -0.0085 ± 0.032 | 0.03 ± 0.014 | -0.015 ± 0.011 | -0.007 ± 0.045 | 0.016 ± 0.079 | -0.013 ± 0.0042 | 0.002 ± 0.031 | 0.047 ± 0.021 | -0.033 ± 0.0057 | -0.0185 ± 0.018 | 0.0015 ± 0.044 | -0.006 | -0.0025 ± 0.0064 | 0.0305 ± 0.013 | 0.009 ± 0.024 | 0.0095 ± 0.026 | 0.049 ± 0.047 | 0.0295 ± 0.044 | 0.027 ± 0.02 | 0.0555 ± 0.0064
12 | BF4T:CCL26/Eotaxin-3 | 0.002 ± 0.055 | -0.0155 ± 0.042 | 0.009 ± 0.048 | -0.0205 ± 0.032 | -0.0065 ± 0.0064 | 0.016 ± 0.017 | -0.0015 ± 0.057 | -0.0475 ± 0.0064 | 0.016 ± 0.054 | 0.0055 ± 0.042 | 0.043 ± 0.011 | -0.241 ± 0.012 | -0.23 ± 0.018 | -0.231 ± 0.046 | -0.0595 ± 0.026 | -0.155 ± 0.0085 | -0.192 ± 0.097 | -0.0775 ± 0.074 | -0.146 ± 0.056 | -0.126 ± 0.0064
13 | BF4T:CCL2/MCP-1 | -0.008 ± 0.035 | 0.0195 ± 0.013 | -0.0085 ± 0.0064 | 0.004 ± 0.038 | -0.223 ± 0.34 | 0.011 ± 0.0042 | -0.0015 ± 0.0035 | -0.009 ± 0.037 | 0.0015 ± 0.043 | -0.0225 ± 0.005 | 0.0085 ± 0.032 | -0.175 ± 0.031 | -0.095 ± 0.016 | -0.16 ± 0.052 | 0.0145 ± 0.005 | 0.0095 ± 0.035 | -0.0565 ± 0.21 | 0.005 ± 0.072 | 0.0255 ± 0.022 | 0.07 ± 0.016
14 | BF4T:CXCL8/IL-8 | 0.011 ± 0.013 | 0.007 ± 0.0099 | -0.0045 ± 0.035 | -0.002 ± 0.0085 | 0.0175 ± 0.029 | -0.0035 ± 0.013 | -0.0005 ± 0.026 | -0.0025 ± 0.03 | 0.0125 ± 0.039 | 0.009 ± 0.041 | 0.0345 ± 0.0035 | 0.102 ± 0.0092 | 0.163 ± 0.011 | 0.171 ± 0.019 | -0.0155 ± 0.00071 | -0.032 ± 0.014 | -0.0185 ± 0.059 | 0.0005 ± 0.052 | -0.0105 ± 0.047 | 0.0205 ± 0.0078
